Laboratory results as given in US20060270615A1, “Compositions suitable for the treatment of damage caused by ischemia/reper-fusion or oxidative stress” (N.V. NUTRICIA, priority 2000, published 2006).
Values joined by “and” are separate entries in the source; they are usually repeats but may differ in a detail not shown here. Identical values can stand only once.

Tests used:
[1] = Peroxyl radical scavenging (β-phycoerythrin fluorescence assay, ORACROO); assay type: biochemical; design: key to TE (Trolox equivalent) (based on mole weight): ratio of net curve area to Trolox's, molar basis; conditions: relative to Trolox, area under fluorescence curve
Description: In the β-phycoerythrin fluorescence based assay the reduction of β-phycoerythrin decomposition by radicals resulting from the thermal decomposition of V50 is measured. […]
Peroxyl Radical Scavenging (β-phycoerythrin fluorescence assay)
The principle underlying the present method is that B-phycoerythrin is decomposed by radicals that are the result of the thermolitic decomposition of V50 at 20° C. When a product scavenges these radicals, the decrease in fluorescence in time will occur less quickly. All measurements should be carried out at least in threefold.
AAPH (2,2′-azobis(2-aminopropane)dihydrochloride) (e.g. from Wako Chemicals)=V50; MW=271.19 g/mol; 16 mM in the assay
β-PE (e.g. from Sigma) MW=240,000 g /mol; 16.7 nM in the assay
Trolox (e.g. from Aldrich) MW =250.29 g/mol; in the assay test in the range of 1-10 μM.
Each tray should contain trolox as a reference and as a standard (2 μM or 0.5 mg/l). As a negative control a sample is taken containing only 10 μl ethanol, 50 μl 50 mM PBS, pH=7.4 and 50 μl 66.8 nM β-PE.
The reaction is started by adding 100 μl 32nM V-50. The time between pipetting and mixing of this last step in a well and the measurement of this well, should be constant. Further, the time between the last pipetting step in a well and the first measurement of the well should be less than 2 minutes.
V-50 should be stored in the dark at 4° C. until used. The reaction kinetics of the wells are monitored in a continuous monitoring process. The excitation wavelength is 540 nm, while the emission wavelength is 565 nm. The reaction is monitored until the signal of the sample differs no longer from the background signal (±10%). The area underneath the curve of the negative reference is subtracted from the area underneath the substance to be measured. This difference in area is then related to a difference in area in relation to a negative reference resulting from trolox.

[2] = biological target: T1, xanthine oxidase (grade I from buttermilk) (Bos taurus, UniProt P80457); test: Xanthine oxidase inhibition (xanthine oxidase assay), uric acid production; assay type: biochemical; conditions: xanthine substrate, pH 7.8, absorbance at 295 nm; for IC50: read-out: IC-50 xanthine oxidase inhibition (converted)
T1 construct: XOD (xanthine oxidase) (grade I from buttermilk); from tissue; host or cells: buttermilk
T1 sequence (P80457 whole entry): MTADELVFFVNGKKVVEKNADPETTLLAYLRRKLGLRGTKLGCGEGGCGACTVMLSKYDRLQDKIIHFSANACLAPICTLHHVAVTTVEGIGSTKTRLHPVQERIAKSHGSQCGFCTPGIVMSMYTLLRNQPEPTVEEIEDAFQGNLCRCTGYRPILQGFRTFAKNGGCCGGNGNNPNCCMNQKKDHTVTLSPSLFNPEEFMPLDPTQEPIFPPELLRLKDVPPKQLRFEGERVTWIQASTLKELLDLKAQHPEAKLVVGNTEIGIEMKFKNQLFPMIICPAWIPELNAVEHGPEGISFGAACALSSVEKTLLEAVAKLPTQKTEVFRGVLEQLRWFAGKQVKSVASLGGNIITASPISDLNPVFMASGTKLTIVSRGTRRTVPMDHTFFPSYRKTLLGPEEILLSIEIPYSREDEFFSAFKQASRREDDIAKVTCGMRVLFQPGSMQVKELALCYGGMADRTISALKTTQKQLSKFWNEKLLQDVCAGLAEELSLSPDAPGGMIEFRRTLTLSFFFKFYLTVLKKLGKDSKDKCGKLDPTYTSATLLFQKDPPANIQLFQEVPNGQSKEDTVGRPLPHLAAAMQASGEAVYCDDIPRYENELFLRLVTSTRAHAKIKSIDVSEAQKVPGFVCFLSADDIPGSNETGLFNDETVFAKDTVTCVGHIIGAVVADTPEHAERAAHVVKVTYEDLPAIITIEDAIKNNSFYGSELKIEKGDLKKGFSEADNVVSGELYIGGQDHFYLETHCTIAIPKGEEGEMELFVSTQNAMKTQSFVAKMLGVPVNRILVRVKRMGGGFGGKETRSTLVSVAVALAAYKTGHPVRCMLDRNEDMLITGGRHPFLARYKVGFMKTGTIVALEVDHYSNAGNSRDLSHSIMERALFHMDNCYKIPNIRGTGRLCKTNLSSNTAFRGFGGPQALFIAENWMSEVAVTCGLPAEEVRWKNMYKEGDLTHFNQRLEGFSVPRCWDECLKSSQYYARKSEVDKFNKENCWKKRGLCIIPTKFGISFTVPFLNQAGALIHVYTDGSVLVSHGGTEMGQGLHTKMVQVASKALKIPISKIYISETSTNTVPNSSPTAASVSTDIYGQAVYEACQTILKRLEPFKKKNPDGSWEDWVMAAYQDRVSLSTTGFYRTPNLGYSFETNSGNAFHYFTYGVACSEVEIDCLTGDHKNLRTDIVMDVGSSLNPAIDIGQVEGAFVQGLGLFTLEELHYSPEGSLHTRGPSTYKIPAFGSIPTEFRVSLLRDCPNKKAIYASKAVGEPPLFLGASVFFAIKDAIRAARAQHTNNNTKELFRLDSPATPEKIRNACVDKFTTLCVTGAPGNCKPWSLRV
Description: Xanthine Oxidase Inhibition (Xanthine Oxidase Assay)
The activity of xanthine oxidase is determined by means of the uric acid production.
This solution is maintained on ice during the entire experiment to prevent changes in the activity of the enzyme.
724 μl phophate buffer pH=7.8
10 μl DMSO or the substance to be tested dissolved in DMSO
The reaction is started by addition of 66 μl of the enzyme solution to the above described assay mixture. […] If the reaction is linear, the result is expressed as Δ absorbance/min. […] The maximum activity is the activity of the enzyme, when no substance is dissolved in DMSO.

| IC50 [2] | IC-50 xanthine oxidase inhibition [2] | SMILES | TE (Trolox equivalent) (based on mass) [1] | TE (Trolox equivalent) (based on mole weight) [1] |
| --- | --- | --- | --- | --- |
| 999 nM and 1000 nM |  | O=c1cc(-c2ccc(O)cc2)oc2cc(O)cc(O)c12 [Apigenin] | 1.56 | 1.69 |
| 2540 nM and 2500 nM |  | O=c1cc(-c2ccccc2)oc2cc(O)cc(O)c12 [Chrysin] |  |  |
|  | not detectable | COc1cc(/C=C/C(=O)CC(=O)/C=C/c2ccc(O)c(OC)c2)ccc1O [Curcumin] |  |  |
|  | not detectable | Oc1cc(O)c2c(c1)O[C@H](c1ccc(O)c(O)c1)[C@H](O)C2 [Epicatechin] |  |  |
| 751 nM and 750 nM |  | O=c1cc(-c2ccc(O)c(O)c2)oc2cc(O)cc(O)c12 [Luteolin] | 1.22 | 1.40 |
|  |  | O=C1c2ccc(O)cc2O[C@H](c2ccc(O)c(O)c2)[C@H]1O [fustin] | 1.07 | 1.24 |
|  |  | O=c1c(O)c(-c2ccc(O)c(O)c2)oc2cc(O)cc(O)c12 [quercetin] | 1.32 | 1.78 |

| SMILES | IC50 [2] | IC-50 xanthine oxidase inhibition [2] | TE (Trolox equivalent) (based on mass) [1] | TE (Trolox equivalent) (based on mole weight) [1] |
| --- | --- | --- | --- | --- |
| O=C(O[C@@H]1Cc2c(O)cc(O)cc2O[C@@H]1c1cc(O)c(O)c(O)c1)c1cc(O)c(O)c(O)c1 [Epigalo-catechin-galate (ECCG), Epigalo-catechin-galate] |  | not detectable | 0.54 | 0.99 |
| O=c1c(O)c(-c2cc(O)c(O)c(O)c2)oc2cc(O)cc(O)c12 [Myricetin] | 1510 nM and 1500 nM |  | 0.89 | 1.13 |
